According to patent US20250066370A1, “BICYCLIC TRIAZINE DERIVATIVES FOR THE TREATMENT OF CANCER” (DEUTSCHES KREBSFORSCHUNGSZENTRUM, priority 2022, published 2025):

Experiments:
CDK12/CyclinK = CDK12/CyclinK (Homo sapiens (Human), UniProt Q9NYV4); assay: CDK12/CycK high ATP kinase assay (TR-FRET); type: biochemical; conditions: for IC50: 2 mM ATP (high ATP), median, read-out: CDK12/CyclinK, 2 mM ATP (high ATP), IC50 - [mol/l] (median); for (IC50 CDK12 high ATP) to (Degradation DC50 CDK12) ratio: IC50 CDK12 at 2 mM ATP divided by CDK12 degradation DC50 (IF, CAL-120)
Description: In the context of the present invention, the term “IC50 CDK12 hATP” refers to the IC50 values obtained according to the assay described in this section (2.2) herein below, i.e. the IC50 values for the inhibition of CDK12 at high (2 mM) ATP.
CDK12/CycK-inhibitory activity of compounds of the present invention at 2 millimol/L adenosine-tri-phosphate (ATP) was quantified employing the TR-FRET (TR-FRET=Time Resolved Fluorescence Energy Transfer) based CDK12/CycK activity inhibition assay as described in the following paragraphs.
A complex of human recombinant CDK12 and human recombinant CycK (both N-terminally His-tagged, expression and purification as described above) was used as enzyme. As substrate for the kinase reaction biotinylated peptide biotin-Ahx-KFELLPTPPLSPSRRSGL (C-terminus in amid form) was used which can be purchased e.g. form the company Biosyntan (Berlin-Buch, Germany).
For the assay 50 nanoL of a 100 fold concentrated solution of the test compound in DMSO was pipetted into either a black low volume 384 well microtiter plate or a black 1536 well microtiter plate (both Greiner Bio-One, Frickenhausen, Germany), 2 microL of a solution of CDK12/CycK in aqueous assay buffer [25 millimol/L HEPES pH 7.5, 20 millimol/L MgCl2, 5 millimol/L β-glycerophosphate, 2 millimol/L EGTA, 1.0 millimol/L dithiothreitol, 0.01% (v/v) Nonidet-P40 (Sigma), 0.01% (w/v) bovine serum albumin] were added and the mixture was incubated for 15 min at 22° C. to allow pre-binding of the test compounds to the enzyme before the start of the kinase reaction. Then the kinase reaction was started by the addition of 3 microL of a solution ATP (3.33 millimol/L=>final conc. in the 5 microL assay volume is 2 millimol/L) and substrate (1.67 micromol/L=>final conc. in the 5 microL assay volume is 1 micromol/L) in assay buffer and the resulting mixture was incubated for a reaction time of 60 min at 22° C. The concentration of CDK12/CycK was adjusted depending of the activity of the enzyme lot and was chosen appropriate to have the assay in the linear range, typical concentrations were about 0.75 nanomol/L. The reaction was stopped by the addition of 3 microL of a solution of TR-FRET detection reagents (125 nanomol/L streptavidine-XL665 [Cisbio Bioassays, Codolet, France] and 0.67 nanomol/L anti-Phospho-c-Myc (Ser 62) (E1J4K)-antibody from Cell Signalling [#13748] and 2 nanomol/L LANCE EU-W1024 labeled anti-rabbit IgG antibody [Perkin-Elmer, product no. 0083]) in an aqueous EDTA-solution (133 millimol/L EDTA, 0.27% (w/v) bovine serum albumin in 66.7 millimol/L HEPES pH 7.5).
(§1) The resulting mixture was incubated 1 h at 22° C. to allow the formation of complex between the phosphorylated biotinylated peptide and the detection reagents. Subsequently the amount of phosphorylated substrate was evaluated by measurement of the resonance energy transfer from the Eu-chelate to the streptavidine-XL. Therefore, the fluorescence emissions at 620 nm and 665 nm after excitation at 350 nm was measured in a TR-FRET reader, e.g. a Pherastar FS (BMG Labtechnologies, Offenburg, Germany) or a Viewlux (Perkin-Elmer). The ratio of the emissions at 665 nm and at […] was taken as the measure for the amount of phosphorylated substrate. The data were normalised (enzyme reaction without inhibitor=0% inhibition, all other assay components but no enzyme=100% inhibition).

CDK9/CyclinT1 = CDK9/CyclinT1 (Homo sapiens (Human), UniProt P50750); assay: CDK9/CycT1 high ATP kinase assay (TR-FRET); type: biochemical; conditions: 2 mM ATP (high ATP); median; read-out: CDK9/CyclinT1, 2 mM ATP (high ATP), IC50 - [mol/l] (median)
Description: CDK9/CycT1-inhibitory activity of compounds of the present invention at a high ATP concentration after preincubation of enzyme and test compounds was quantified employing the CDK9/CycT1 TR-FRET assay as described in the following paragraphs.
Recombinant full-length His-tagged human CDK9 and CycT1, expressed in insect cells and purified by Ni-NTA affinity chromatography, were purchased from Life Technologies (Cat. No PV4131). As substrate for the kinase reaction biotinylated peptide biotin-Ttds-YISPLKSPYKISEG (C-terminus in amide form) was used which can be purchased e.g. form the company JERINI peptide technologies (Berlin, Germany).
For the assay 50 nanoL of a 100 fold concentrated solution of the test compound in DMSO was pipetted into either a black low volume 384 well microtiter plate or a black 1536 well microtiter plate (both Greiner Bio-One, Frickenhausen, Germany), 2 microL of a solution of CDK9/CycT1 in aqueous assay buffer [50 millimol/L Tris/HCl PH 8.0, 10 millimol/L MgCl2, 1.0 millimol/L dithiothreitol, 0.1 millimol/L sodium ortho-vanadate, 0.01% (v/v) Nonidet-P40 (Sigma)] were added and the mixture was incubated for 15 min at 22° C. to allow pre-binding of the test compounds to the enzyme before the start of the kinase reaction. Then the kinase reaction was started by the addition of 3 microL of a solution of adenosine-tri-phosphate (ATP, 3.3 millimol/L=>final conc. in the 5 microL assay volume is 2 millimol/L) and substrate (1.25 micromol/L=>final conc. in the 5 microL assay volume is 0.75 micromol/L) in assay buffer and the resulting mixture was incubated for a reaction time of 25 min at 22° C. The concentration of CDK9/CycT1 was adjusted depending of the activity of the enzyme lot and was chosen appropriate to have the assay in the linear range, typical concentrations were in the range of 0.5 microg/ml. The reaction was stopped by the addition of 3 microL of a solution of TR-FRET detection reagents (0.33 micromol/L streptavidine-XL665 [Cisbio Bioassays, Codolet, France] and 1.67 nanomol/L anti-RB (pSer807/pSer811)-antibody from BD Pharmingen [#558389] and 2 nanomol/L LANCE EU-W1024 labeled anti-mouse IgG antibody [Perkin-Elmer, product no. AD0077]) in an aqueous EDTA-solution (167 millimol/L EDTA, 0.2% (w/v) bovine serum albumin in 100 millimol/L HEPES pH 7.5).
as §1, with “Pherastar” for “Pherastar FS”

Chain of CDK12/CyclinK (Q9NYV4 other isoform, or with tags, fused parts or gaps): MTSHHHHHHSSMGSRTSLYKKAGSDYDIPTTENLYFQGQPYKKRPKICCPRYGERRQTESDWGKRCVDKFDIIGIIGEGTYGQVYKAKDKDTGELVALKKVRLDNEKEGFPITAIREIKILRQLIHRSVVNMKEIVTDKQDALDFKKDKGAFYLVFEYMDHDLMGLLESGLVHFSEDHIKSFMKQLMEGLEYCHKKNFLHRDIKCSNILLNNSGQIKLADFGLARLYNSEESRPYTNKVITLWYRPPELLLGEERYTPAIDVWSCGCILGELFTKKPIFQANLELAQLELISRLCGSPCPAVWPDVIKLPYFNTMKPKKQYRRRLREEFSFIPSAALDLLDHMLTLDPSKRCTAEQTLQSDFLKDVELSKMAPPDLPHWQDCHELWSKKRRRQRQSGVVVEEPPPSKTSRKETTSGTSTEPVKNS
Chain of CDK12/CyclinK (O75909 other isoform, or with tags, fused parts or gaps partner): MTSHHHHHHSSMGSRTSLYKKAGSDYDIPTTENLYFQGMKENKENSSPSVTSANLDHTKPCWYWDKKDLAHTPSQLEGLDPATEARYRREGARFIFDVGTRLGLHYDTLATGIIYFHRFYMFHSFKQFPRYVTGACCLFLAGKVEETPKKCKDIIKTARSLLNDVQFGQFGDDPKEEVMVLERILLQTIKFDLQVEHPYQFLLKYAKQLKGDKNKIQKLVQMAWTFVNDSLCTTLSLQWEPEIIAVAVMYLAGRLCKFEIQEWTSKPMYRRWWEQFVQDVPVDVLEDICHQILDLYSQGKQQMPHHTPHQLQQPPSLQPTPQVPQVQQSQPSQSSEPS
Chain of CDK9/CyclinT1 (P50750 whole entry): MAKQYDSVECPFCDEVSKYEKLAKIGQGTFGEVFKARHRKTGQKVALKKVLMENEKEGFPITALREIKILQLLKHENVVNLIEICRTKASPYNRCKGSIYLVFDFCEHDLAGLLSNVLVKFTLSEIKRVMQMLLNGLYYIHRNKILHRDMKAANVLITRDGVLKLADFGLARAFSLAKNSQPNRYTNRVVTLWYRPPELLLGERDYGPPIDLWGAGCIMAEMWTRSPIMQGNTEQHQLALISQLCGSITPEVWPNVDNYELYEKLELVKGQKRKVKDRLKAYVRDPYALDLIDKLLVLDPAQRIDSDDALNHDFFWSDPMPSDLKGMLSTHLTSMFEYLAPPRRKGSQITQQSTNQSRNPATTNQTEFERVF
Chain of CDK9/CyclinT1 (O60563 whole entry partner): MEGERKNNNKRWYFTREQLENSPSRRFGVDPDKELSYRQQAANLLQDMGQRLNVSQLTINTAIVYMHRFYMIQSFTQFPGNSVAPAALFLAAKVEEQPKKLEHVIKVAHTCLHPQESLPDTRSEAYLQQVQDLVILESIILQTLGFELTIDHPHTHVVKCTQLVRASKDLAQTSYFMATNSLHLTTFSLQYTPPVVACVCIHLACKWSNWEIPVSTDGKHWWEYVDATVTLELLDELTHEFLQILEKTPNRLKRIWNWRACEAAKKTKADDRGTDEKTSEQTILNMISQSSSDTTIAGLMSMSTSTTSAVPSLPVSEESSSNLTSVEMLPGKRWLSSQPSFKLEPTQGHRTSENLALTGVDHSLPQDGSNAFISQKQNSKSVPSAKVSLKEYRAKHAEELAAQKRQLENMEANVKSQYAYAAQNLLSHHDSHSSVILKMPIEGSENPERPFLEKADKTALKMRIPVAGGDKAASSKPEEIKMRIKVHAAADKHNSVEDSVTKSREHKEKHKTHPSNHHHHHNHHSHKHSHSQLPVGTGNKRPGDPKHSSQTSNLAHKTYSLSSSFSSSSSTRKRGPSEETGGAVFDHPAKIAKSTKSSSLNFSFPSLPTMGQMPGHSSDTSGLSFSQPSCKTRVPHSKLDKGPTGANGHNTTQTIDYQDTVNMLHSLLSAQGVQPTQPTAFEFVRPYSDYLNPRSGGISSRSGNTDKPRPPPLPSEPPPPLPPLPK

Row | Compound | IC50 (CDK12/CyclinK) [nM] | (IC50 CDK12 high ATP) to (Degradation DC50 CDK12) ratio (CDK12/CyclinK) | IC50 (CDK9/CyclinT1) [nM]
1 | FC(F)(F)Oc1ccc(-c2nnc(CNc3nc(N4CCOCC4)nc4c(C(F)(F)F)cnn34)[nH]2)cc1 [Example 5, 2-(morpholin-4-yl)-N-({5-[4-(trifluoromethoxy)phenyl]-4H-1,2,4-triazol-3-yl}methyl)-8-(trifluoromethyl)pyrazolo[1,5-a][1,3,5]triazin-4-amine] | 262 | 0.26 | 17800
2 | FC(F)(F)c1ccc(-c2nnc(CNc3nc(N4CCOCC4)nc4c(C(F)(F)F)cnn34)[nH]2)cc1 [Example 6, 2-(morpholin-4-yl)-8-(trifluoromethyl)-N-({5-[4-(trifluoromethyl)phenyl]-4H-1,2,4-triazol-3-yl}methyl)pyrazolo[1,5-a][1,3,5]triazin-4-amine] | 736 | 0.74 | > 20000
3 | FC(F)(F)Oc1ccc(-c2nnc(CNc3nc(N4CCOCC4)nn4c(C(F)(F)F)cnc34)[nH]2)cn1 [Example 19, 2-(morpholin-4-yl)-N-({5-[6-(trifluoromethoxy)pyridin-3-yl]-4H-1,2,4-triazol-3-yl}methyl)-7-(trifluoromethyl)imidazo[2,1-f][1,2,4]triazin-4-amine] | 4.14 |  | 506
4 | FC(F)(F)Oc1ccc(-c2cnc(CNc3nc(N4CCOCC4)nc4c(C(F)(F)F)cnn34)[nH]2)cc1 [Example 10, 2-(morpholin-4-yl)-N-({5-[4-(trifluoromethoxy)phenyl]-1H-imidazol-2-yl}methyl)-8-(trifluoromethyl)pyrazolo[1,5-a][1,3,5]triazin-4-amine] | 7.59 | <7.59E−3 | > 20000
5 | FC(F)(F)c1ccc(-c2cnc(CNc3nc(N4CCOCC4)nc4c(C(F)(F)F)cnn34)[nH]2)cc1 [Example 9, 2-(morpholin-4-yl)-8-(trifluoromethyl)-N-({5-[4-(trifluoromethyl)phenyl]-1H-imidazol-2-yl}methyl)pyrazolo[1,5-a][1,3,5]triazin-4-amine] | 9.21 | 9.69E−03 | > 19100
6 | Cc1ccc(-c2nnc(CNc3nc(N4CCOCC4)nc4c(C(F)(F)F)cnn34)[nH]2)cn1 [Example 22, N-{[5-(6-methylpyridin-3-yl)-4H-1,2,4-triazol-3-yl]methyl}-2-(morpholin-4-yl)-8-(trifluoromethyl)pyrazolo[1,5-a][1,3,5]triazin-4-amine] | 489 | <0.49 | 1890
7 | COc1ccc(-c2nnc(CNc3nc(N4CCOCC4)nc4c(C(F)(F)F)cnn34)[nH]2)cn1 [Example 15, N-{[5-(6-methoxypyridin-3-yl)-4H-1,2,4-triazol-3-yl]methyl}-2-(morpholin-4-yl)-8-(trifluoromethyl)pyrazolo[1,5-a][1,3,5]triazin-4-amine] | 526 | <0.53 | 
8 | FC(F)(F)c1ccc(-c2cnc(CNc3nc(N4CCOCC4)nn4c(C(F)(F)F)cnc34)[nH]2)cc1 [Example 7, 2-(morpholin-4-yl)-7-(trifluoromethyl)-N-({5-[4-(trifluoromethyl)phenyl]-1H-imidazol-2-yl}methyl)imidazo[2,1-f][1,2,4]triazin-4-amine] | 26.3 | 0.04 | > 20000
9 | FC(F)(F)Oc1ccc(-c2cnc(CNc3nc(N4CCOCC4)nn4c(C(F)(F)F)cnc34)[nH]2)cc1 [Example 8, 2-(morpholin-4-yl)-N-({5-[4-(trifluoromethoxy)phenyl]-1H-imidazol-2-yl}methyl)-7-(trifluoromethyl)imidazo[2,1-f][1,2,4]triazin-4-amine] | 8.34 | 9.34E−03 | > 20000
10 | COc1ccc(-c2cnc(CNc3nc(N4CCOCC4)nc4c(C(F)(F)F)cnn34)[nH]2)cn1 [Example 21, N-{[5-(6-methoxypyridin-3-yl)-1H-imidazol-2-yl]methyl}-2-(morpholin-4-yl)-8-(trifluoromethyl)pyrazolo[1,5-a][1,3,5]triazin-4-amine] |  |  | 3050
11 | FC(F)(F)c1ccc(-c2cnc(CNc3nc(N4CCOCC4)nn4c(C(F)(F)F)cnc34)[nH]2)cn1 [Example 12, 2-(morpholin-4-yl)-7-(trifluoromethyl)-N-({5-[6-(trifluoromethyl)pyridin-3-yl]-1H-imidazol-2-yl}methyl)imidazo[2,1-f][1,2,4]triazin-4-amine] | 3.09 | <3.09E−3 | > 20000
12 | Cc1ccc(-c2nnc(CNc3nc(N4CCOCC4)nn4c(C(F)(F)F)cnc34)[nH]2)cn1 [Example 23, N-{[5-(6-methylpyridin-3-yl)-4H-1,2,4-triazol-3-yl]methyl}-2-(morpholin-4-yl)-7-(trifluoromethyl)imidazo[2,1-f][1,2,4]triazin-4-amine] | 160 | <0.16 | 624
13 | FC(F)(F)Oc1ccc(-c2nnc(CNc3nc(N4CCOCC4)nn4c(C(F)(F)F)cnc34)[nH]2)cc1 [Example 14, 2-(morpholin-4-yl)-N-({5-[4-(trifluoromethoxy)phenyl]-4H-1,2,4-triazol-3-yl}methyl)-7-(trifluoromethyl)imidazo[2,1-f][1,2,4]triazin-4-amine] |  |  | > 20000
